The results in this text go back to ChEMBL document CHEMBL1143396, “Additivity in the analysis and design of HIV protease inhibitors” (J Med Chem, 2009).

Molecules are shown by their SMILES.

The test addresses Human immunodeficiency virus type 1 protease (Human immunodeficiency virus 1, UniProt Q72874, Q7K). Nature of the test: Inhibition of HIV1 protease Q7K mutant by FRET method.

In the case of `C[C@H](O)CN(C[C@@H](O)[C@H](Cc1ccccc1)NC(=O)C[C@H]1C=CCC1)S(=O)(=O)c1ccco1`, the Ki reads like this: (read-out: Ki) 259 nM; (read-out: pKi (converted)) 257 nM.

For the molecule `COc1cccc(S(=O)(=O)N(C[C@H]2CCCO2)C[C@@H](O)[C@H](Cc2ccccc2)NC(=O)[C@@H]2CN(c3ccccc3)C(=O)O2)c1`, the Ki was 42 nM (read-out: Ki) and 41.7 nM (read-out: pKi (converted)).

For `CC(=O)N[C@H](C(=O)N[C@@H](Cc1ccccc1)[C@H](O)CN(CC(C)C)S(=O)(=O)c1ccc2ncsc2c1)C(C)C`, the Ki is 0.099 nM (read-out: Ki) and 0.1 nM (read-out: pKi (converted)).

Take `CCCCCN(C[C@@H](O)[C@H](Cc1ccccc1)NC(=O)c1cccc(O)c1)S(=O)(=O)c1ccc(OC)cc1`: the Ki reads like this: (read-out: Ki) 1.45 nM; (read-out: pKi (converted)) 1.45 nM.

With `CCC(=O)CCC(=O)N[C@@H](Cc1ccccc1)[C@H](O)CN(CC(C)C)S(=O)(=O)c1ccc2ncsc2c1`, the Ki reads like this: (read-out: Ki) 0.12 nM; (read-out: pKi (converted)) 0.12 nM.

Consider `COc1ccc(S(=O)(=O)N(CC(C)C)C[C@@H](O)[C@H](Cc2ccccc2)NC(=O)/C=C(\C)C(F)(F)F)cc1`, for which the Ki is 0.39 nM (read-out: Ki) and 0.389 nM (read-out: pKi (converted)).

As to `COc1cccc(S(=O)(=O)N(C[C@H](C)O)C[C@@H](O)[C@H](Cc2ccccc2)NC(=O)c2cccc(C)n2)c1`, the Ki (read-out: Ki) worked out at 4760 nM and the Ki (read-out: pKi (converted)) was 4790 nM.

As for `CC(=O)/C=C/C(=O)N[C@@H](Cc1ccccc1)[C@H](O)CN(Cc1cccs1)S(=O)(=O)c1cnoc1C`, the Ki reads like this: (read-out: Ki) 26300 nM; (read-out: pKi (converted)) 26300 nM.

`CCCCCN(C[C@@H](O)[C@H](Cc1ccccc1)NC(=O)CCC(=O)CC)S(=O)(=O)c1ccc2ncsc2c1`: the Ki runs as follows: (read-out: Ki) 1.62 nM; (read-out: pKi (converted)) 1.62 nM.

As to `CC[C@H](C)CN(C[C@@H](O)[C@H](Cc1ccccc1)NC(=O)c1ccc(O)c(O)c1)S(=O)(=O)c1ccc(OC)cc1`, the Ki reads like this: (read-out: Ki) 0.38 nM; (read-out: pKi (converted)) 0.38 nM.
